This passage reports IC50 results from patent publication US11578061B2, “Inhibitors of LRRK2 kinase” (Halia Therapeutics, Inc., priority 2021, dated 2023).

Chain of recombinant human LRRK2 (catalytic domain only [amino acids 970-2527], GST-tagged) (Q5S007 970-2527): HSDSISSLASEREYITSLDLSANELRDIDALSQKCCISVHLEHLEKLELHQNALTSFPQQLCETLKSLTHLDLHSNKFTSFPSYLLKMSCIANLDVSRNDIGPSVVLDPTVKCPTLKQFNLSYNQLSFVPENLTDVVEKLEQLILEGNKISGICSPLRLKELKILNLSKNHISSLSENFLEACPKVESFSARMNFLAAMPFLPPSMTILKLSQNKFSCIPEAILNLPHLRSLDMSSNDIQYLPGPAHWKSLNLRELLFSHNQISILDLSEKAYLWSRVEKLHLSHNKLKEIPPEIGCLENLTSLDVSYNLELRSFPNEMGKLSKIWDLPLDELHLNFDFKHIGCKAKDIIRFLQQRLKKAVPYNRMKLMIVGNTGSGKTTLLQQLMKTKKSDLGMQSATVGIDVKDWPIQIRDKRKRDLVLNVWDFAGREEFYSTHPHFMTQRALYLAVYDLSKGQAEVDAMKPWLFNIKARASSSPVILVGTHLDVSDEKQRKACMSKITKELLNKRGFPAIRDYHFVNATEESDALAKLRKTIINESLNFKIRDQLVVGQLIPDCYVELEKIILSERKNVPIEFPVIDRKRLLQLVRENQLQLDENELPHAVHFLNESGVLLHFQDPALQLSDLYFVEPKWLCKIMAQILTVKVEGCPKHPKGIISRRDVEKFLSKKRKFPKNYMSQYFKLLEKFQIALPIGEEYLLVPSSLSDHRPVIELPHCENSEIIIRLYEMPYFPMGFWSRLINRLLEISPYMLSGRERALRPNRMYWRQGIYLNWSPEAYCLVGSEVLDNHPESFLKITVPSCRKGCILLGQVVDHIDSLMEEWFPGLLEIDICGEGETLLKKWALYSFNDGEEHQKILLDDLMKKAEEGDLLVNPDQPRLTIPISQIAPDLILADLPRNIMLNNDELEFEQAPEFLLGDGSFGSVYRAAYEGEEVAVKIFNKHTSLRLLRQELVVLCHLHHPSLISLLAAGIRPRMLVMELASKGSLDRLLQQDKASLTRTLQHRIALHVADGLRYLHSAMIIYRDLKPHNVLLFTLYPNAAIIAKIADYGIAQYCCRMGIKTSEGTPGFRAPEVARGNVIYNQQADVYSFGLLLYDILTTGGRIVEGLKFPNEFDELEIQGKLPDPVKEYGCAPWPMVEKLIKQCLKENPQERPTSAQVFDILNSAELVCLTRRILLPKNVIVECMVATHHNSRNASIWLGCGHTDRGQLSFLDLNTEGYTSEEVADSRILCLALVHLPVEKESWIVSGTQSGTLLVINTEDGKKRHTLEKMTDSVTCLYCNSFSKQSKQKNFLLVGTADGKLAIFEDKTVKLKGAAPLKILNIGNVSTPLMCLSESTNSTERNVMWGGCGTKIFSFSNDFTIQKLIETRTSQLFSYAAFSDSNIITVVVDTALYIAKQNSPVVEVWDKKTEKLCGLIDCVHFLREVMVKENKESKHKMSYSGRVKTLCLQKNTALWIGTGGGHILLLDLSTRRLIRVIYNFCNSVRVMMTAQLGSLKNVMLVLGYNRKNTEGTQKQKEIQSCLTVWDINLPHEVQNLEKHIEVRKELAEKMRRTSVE

In the assay the target is recombinant human LRRK2 (catalytic domain only [amino acids 970-2527], GST-tagged) (Homo sapiens (Human), UniProt Q5S007). Briefly: LRRK2 Enzymatic Assay. The format is biochemical. As to conditions: LRRKtide substrate, [32P]-ATP. The essentials:
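Radiometric P81 filter-binding read-out of [32P]-ATP transfer to LRRKtide (20 μM) by 30 nM GST-LRRK2 970-2527, 2 h at room temperature after 20 min compound preincubation (10 μM–0.5 nM, 1% DMSO). IC50 derived from % remaining activity versus DMSO.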
By IC50 is commonly meant the midpoint of a concentration-inhibition curve. As to `Clc1cnc(Nc2ccc(N3CCOCC3)cc2)nc1OCC1CCOCC1` [Example 148, 5-chloro-N-(4-morpholinophenyl)-4-((tetrahydro-2H-pyran-4-yl)methoxy)pyrimidin-2-amine], the IC50 was less than 50 nM. With `CNC[C@H]1CC[C@H](COc2nc(Nc3cnn(C4CC(C#N)C4)c3C)ncc2Cl)CC1` (stereo partly drawn) [Example 50, 3-(4-((5-chloro-4-(((1R,4R)-4-((methylamino)methyl)cyclohexyl)methoxy)pyrimidin-2-yl)amino)-5-methyl-1H-pyrazol-1-yl)cyclobutane-1-carbonitrile] the figure was less than 50 nM; with `CC(=O)N[C@H]1CC[C@H](COc2nc(Nc3cn(C)nc3Cl)ncc2F)CC1` [Example 201, N-((1R,4R)-4-(((2-((3-chloro-1-methyl-1H-pyrazol-4-yl)amino)-5-fIuoropyrimidin-4-yl)oxy)methyl)cyclo-hexyl)acetamide], less than 50 nM. The value for `CC(=O)N[C@H]1CC[C@H](COc2nc(Nc3cnn(CCF)c3)ncc2F)CC1` [Example 189, N-((1R,4R)-4-(((5-fluoro-2-((1-(2-fluoroethyl)-1H-pyrazol-4-yl)amino)pyrimidin-4-yl)oxy)methyl)cyclo-hexyl)acetamide] was less than 50 nM. Turning to `CC(=O)N1CC2(CC(COc3nc(Nc4ccc(N5C[C@@H](C)O[C@@H](C)C5)cc4)ncc3F)C2)C1` [Example 97], the IC50 was greater than 400 nM. The value for `COc1nn(C2CC2)cc1Nc1ncc(F)c(OC[C@H]2CC[C@H](O)CC2)n1` [Example 245, (1R,4R)-4-(((2-((1-cyclopropyl-3-methoxy-1H-pyrazol-4-yl)amino)-5-fluoropyrimidin-4-yl)oxy)methyl)cyclohexan-1-ol] was 200 to 400 nM; that for `Cc1nn(C(C)(C)C#N)cc1Nc1ncc(F)c(OCC2CCN(C)CC2)n1` [Example 67, 2-(4-((5-fluoro-4-((1-methylpiperidin-4-yl)methoxy)pyrimidin-2-yl)amino)-3-methyl-1H-pyrazol-1-yl)-2-methylpropanenitrile] was greater than 400 nM.

As for `CC(=O)NC12CCC(COc3ccnc(Nc4ccc(N5CCOCC5)cc4)n3)(CC1)CC2` [Example 77, N-(4-(((2-((4-morpholinophenyl)amino)pyrimidin-4-yl)oxy)methyl)bicyclo [2.2.2]octan-1-yl)acetamide], the IC50 is greater than 400 nM. Consider `Cc1nn(C(C)(C)C#N)cc1Nc1ncc(Cl)c(OCC2CN(C)C2)n1` [Example 68, 2-(4-((5-chloro-4-((1-methylazetidin-3-yl)methoxy)pyrimidin-2-yl)amino)-3-methyl-1H-pyrazol-1-yl)-2-methylpropanenitrile], for which the concentration for half-maximal inhibition (IC50) is greater than 400 nM. With `Fc1cnc(Nc2ccc(N3CCOCC3)cc2)nc1OCC1(F)CCNCC1` [Example 24, 5-fluoro-4-((4-fluoropiperidin-4-yl)methoxy)-N-(4-morpholinophenyl) pyrimidin-2-amine] the figure was 50 to 200 nM; with `CC(=O)NC1CCC(C)(COc2ccnc(Nc3ccc(N4CCOCC4)cc3)n2)CC1` (stereo not drawn) [Example 91, N-(4-methyl-4-(((2-((4-morpholinophenyl)amino)pyrimidin-4-yl)oxy)methyl)cyclo-hexyl)acetamide], greater than 400 nM.

In the case of `C[C@@H]1CN(c2ccc(Nc3ncc(F)c(OCC4CCNCC4F)n3)cc2)C[C@H](C)O1` (single isomer, unassigned) [Example 169], the IC50 was 50 to 200 nM. With `O[C@H]1CC[C@H](COc2nc(Nc3cnn(C4COC4)c3)ncc2F)CC1` [Example 227, (1R,4R)-4-(((5-fluoro-2-((1-(oxetan-3-yl)-1H-pyrazol-4-yl)amino)pyrimidin-4-yl)oxy)methyl)cyclohexan-1-ol], the IC50 is 200 to 400 nM. On to `CC(=O)N[C@H]1CC[C@H](COc2nc(Nc3cnn(C(C)C)c3)ncc2F)CC1` [Example 185, N-((1R,4R)-4-(((5-fluoro-2-((1-isopropyl-1H-pyrazol-4-yl)amino)pyrimidin-4-yl)oxy)methyl)cyclo-hexyl)acetamide], for which the IC50 was less than 50 nM. The value for `Cc1c(Nc2ncc(Cl)c(OCC3(F)CCNCC3)n2)cnn1C1CC(C#N)C1` (stereo not drawn) [Example 22, 3-(4-((5-chloro-4-((4-fluoropiperidin-4-yl)methoxy)pyrimidin-2-yl)amino)-5-methyl-1H-pyrazol-1-yl)cyclobutane-1-carbonitrile] was less than 50 nM; that for `C[C@@H]1CN(c2ccc(Nc3ncc(F)c(OCC4(F)CCN(C)CC4)n3)cc2)C[C@H](C)O1` [Example 65, N-(4-((2R,6S)-2,6-dimethylmorpholino)phenyl)-5-fluoro-4-((4-fluoro-1-methylpiperidin-4-yl)methoxy)pyrimidin-2-amine] was 50 to 200 nM. As to `CC(=O)N[C@H]1CC[C@H](COc2nc(Nc3cnn(C(C)(C)C#N)c3C)ncc2F)CC1` [Example 199, N-((1R,4R)-4-(((2-((1-(2-cyanopropan-2-yl)-5-methyl-1H-pyrazol-4-yl)amino)-5-fluoropyrimidin-4-yl)oxy)methyl)cyclo-hexyl)acetamide], the IC50 is less than 50 nM. With `CC(=O)N[C@H]1CC[C@H](COc2nc(Nc3cnn(C4COC4)c3)ncc2F)CC1` [Example 192, N-((1R,4R)-4-(((5-fluoro-2-((1-(oxetan-3-yl)-1H-pyrazol-4-yl)amino)pyrimidin-4-yl)oxy)methyl)cyclo-hexyl)acetamide] the figure was 50 to 200 nM; with `Cc1nn(C(F)F)cc1Nc1ncc(F)c(OC[C@H]2CC[C@H](O)CC2)n1` [Example 232, (1R,4R)-4-(((2-((1-(difluoromethyl)-3-methyl-1H-pyrazol-4-yl)amino)-5-fluoropyrimidin-4-yl)oxy)methyl)cyclohexan-1-ol], 50 to 200 nM. With `CC(=O)N[C@H]1CC[C@H](COc2nc(Nc3ccc(N4CCOCC4)cc3)ncc2Cl)CC1` [Example 80, N-((1R,4R)-4-(((5-chloro-2-((4-morpholinophenyl)amino)pyrimidin-4-yl)oxy)methyl)cyclo-hexyl)acetamide] the figure was less than 50 nM. The value for `FC(F)(F)CN[C@H]1CC[C@H](COc2nc(Nc3ccc(N4CCOCC4)cc3)ncc2Cl)CC1` [Example 108, 5-chloro-N-(4-morpholino-phenyl)-4-(((1R,4R)-4-((2,2,2-trifluoroethyl)amino)cyclohexyl)methoxy) pyrimidin-2-amine] was less than 50 nM; that for `Clc1cnc(Nc2ccc(N3CCOCC3)cc2)nc1OCC1CCCCC1` [Example 147, 5-chloro-4-(cyclohexylmethoxy)-N-(4-morpholinophenyl)pyrimidin-2-amine] was less than 50 nM; that for `OC12CCC(COc3ccnc(Nc4ccc(N5CCOCC5)cc4)n3)(CC1)CC2` [Example 140, 4-(((2-((4-morpholinophenyl)amino)pyrimidin-4-yl)oxy)methyl)bicyclo[2.2.2]octan-1-ol] was greater than 400 nM.

`Cc1nn(C2CC(C#N)C2)cc1Nc1ncc(Cl)c(OCC2(F)CCN(C)CC2)n1` (stereo not drawn) [Example 62, 3-(4-((5-chloro-4-((4-fluoro-1-methylpiperidin-4-yl)methoxy)pyrimidin-2-yl)amino)-3-methyl-1H-pyrazol-1-yl)cyclobutane-1-carbonitrile]: the IC50 fell in the range of 200 to 400 nM. With `O[C@H]1CC[C@H](COc2nc(Nc3ccc(N4CC5(CCOC5)C4)cc3)ncc2F)CC1` [Example 215, (1R,4R)-4-(((2-((4-(6-oxa-2-azaspiro[3.4]octan-2-yl)phenyl)amino)-5-fluoropyrimidin-4-yl)oxy)methyl)cyclohexan-1-ol] the figure was less than 50 nM; with `COc1nn(C(C)C)cc1Nc1ncc(F)c(OC[C@H]2CC[C@H](NC(=O)C(F)(F)F)CC2)n1` [Example 213, 2,2,2-trifluoro-N-((1R,4R)-4-(((5-fluoro-2-((1-isopropyl-3-methoxy-1H-pyrazol-4-yl)amino)pyrimidin-4-yl)oxy)methyl)cyclohexyl) acetamide], less than 50 nM. As to `NC[C@H]1CC[C@H](COc2nc(Nc3ccc(N4CCOCC4)cc3)ncc2Cl)CC1` [Example 14, 4-(((1R,4R)-4-(aminomethyl)cyclohexyl)methoxy)-5-chloro-N-(4-morpholinophenyl) pyrimidin-2-amine], the IC50 is less than 50 nM.

Regarding `CC(=O)N[C@H]1CC[C@H](COc2nc(Nc3cn(C)nc3C)ncc2F)CC1` [Example 194, N-((1R,4R)-4-(((2-((1,3-dimethyl-1H-pyrazol-4-yl)amino)-5-fluoropyrimidin-4-yl)oxy)methyl)cyclo-hexyl)acetamide], the IC50 was 50 to 200 nM. The value for `Cc1nn(C(C)(C)C#N)cc1Nc1ncc(Cl)c(OCC2CC3(CNC3)C2)n1` [Example 28, 2-(4-((4-((2-azaspiro[3.3]heptan-6-yl)methoxy)-5-chloropyrimidin-2-yl)amino)-3-methyl-1H-pyrazol-1-yl)-2-methylpropanenitrile] was less than 50 nM; that for `COc1nn(C(C)C)cc1Nc1ncc(F)c(OC[C@H]2CC[C@H](O)CC2)n1` [Example 244, (1R,4R)-4-(((5-fluoro-2-((1-isopropyl-3-methoxy-1H-pyrazol-4-yl)amino)pyrimidin-4-yl)oxy)methyl)cyclohexan-1-ol] was greater than 400 nM.

Regarding `CC(=O)N[C@H]1CC[C@H](COc2nc(Nc3cn(C(C)(C)C#N)nc3C)ncc2Cl)CC1` [Example 81, N-((1R,4R)-4-(((5-chloro-2-((1-(2-cyanopropan-2-yl)-3-methyl-1H-pyrazol-4-yl)amino)pyrimidin-4-yl)oxy)methyl)cyclo-hexyl)acetamide], the IC50 was less than 50 nM. The value for `CC(=O)NC1CCCC(COc2nc(Nc3ccc(N4CCOCC4)cc3)ncc2F)CC1` (stereo not drawn) [Example 85, N-(4-(((5-fluoro-2-((4-morpholinophenyl)amino)pyrimidin-4-yl)oxy)methyl)cyclo-heptyl)acetamide] was less than 50 nM; that for `FC1(F)CCC(COc2nc(Nc3ccc(N4CCOCC4)cc3)ncc2Cl)CC1` [Example 153, 5-chloro-4-((4,4-difluorocyclohexyl)methoxy)-N-(4-morpholinophenyl)pyrimidin-2-amine] was 50 to 200 nM.
